Source: PubChem BioAssay (NCI)
Where “and” joins values, the source holds several entries; their conditions need not be identical. Identical values can stand only once.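 Assay format: 96-well plates, 48-hour exposure. GI50: concentration for 50% inhibition of growth. TGI is the concentration that stops growth completely.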

What was measured:
Experiment in all cases: NCI-60 cell line screen, 48 h
[1] = test system: ACHN renal
[2] = test system: CCRF-CEM leukemia
[3] = test system: HCT-116 colon
[4] = test system: HOP-92 NSCLC
[5] = test system: IGROV1 ovarian
[6] = test system: M14 melanoma
[7] = test system: NCI-H226 lung
[8] = test system: OVCAR-4 ovarian
[9] = test system: SK-MEL-5 melanoma
[10] = test system: SN12C renal

`COc1ccc2c(c1OC)C[C@@H]1c3c(cc4c(c3-2)OCO4)CCN1C` gave a TGI [1] of over 100 µM, a TGI [2] of 51.6 µM and a TGI [3] of 47.3 µM. For the same molecule, the TGI [4] was 68.1 µM, the TGI [5] was 99.1 µM and the TGI [6] was 84.8 µM. The TGI [7] was 47 µM, the TGI [8] was over 100 µM and the TGI [9] was 38.1 µM. It also gave a TGI [10] of over 100 µM.

`O=c1c2c(=NCCN3CCCC3)cc3c(=O)n(CCCN4CCOCC4)c(=O)c4c(-c5ccc(CN6CCCC6)cc5)cc(c(O)n1CCCN1CCOCC1)c2c4-3` gave a GI50 [1] of 0.0257 µM, a TGI [1] of 0.783 µM and a GI50 [2] of 0.0673 µM. For the same molecule, the TGI [2] was 1.05 µM, the GI50 [3] was 0.0101 µM and the TGI [3] was 0.209 µM. For the same molecule, the GI50 [4] was 0.0178 µM, the TGI [4] was 0.0735 µM and the GI50 [5] was 0.0399 µM. For the same molecule, the TGI [5] was 1.47 µM, the GI50 [6] was 0.136 µM and the TGI [6] was 0.641 µM. For the same molecule, the GI50 [7] was 0.0523 µM, the TGI [7] was 0.49 µM and the GI50 [8] was 0.0491 µM. It also gave a TGI [8] of 0.23 µM, a GI50 [9] of 0.133 µM and a TGI [9] of 0.3 µM. It also gave a GI50 [10] of under 0.0221 µM and a TGI [10] of 1.37 µM.

`COc1ccc(C2=N[C@@H](Cc3ccccc3)C(=O)Nc3ccsc32)cc1` gave a GI50 [1] of 6.27 µM, a TGI [1] of 39.1 µM and a GI50 [2] of 3.46 µM. For the same molecule, the TGI [2] was 28.1 µM, the GI50 [3] was 5.38 µM and the TGI [3] was 17.7 µM. For the same molecule, the GI50 [4] was 2.32 µM, the TGI [4] was 16.7 µM and the GI50 [5] was 12.8 µM. For the same molecule, the TGI [5] was 41 µM, the GI50 [6] was 3.66 µM and the TGI [6] was 12.6 µM. For the same molecule, the GI50 [7] was 11.2 µM, the TGI [7] was 42 µM and the GI50 [8] was 11.2 µM. For the same molecule, the TGI [8] was 83 µM, the GI50 [9] was 3.26 µM and the TGI [9] was 12.1 µM. For the same molecule, the GI50 [10] was 8.28 µM and the TGI [10] was 25.7 µM.

With `CCN1C(=S)N(c2ccccc2)C2NC(=S)N(/N=C/C=C/c3ccccc3OC)C21` (centres undefined) the GI50 [1] was 0.556 µM, the TGI [1] was over 100 µM and the GI50 [2] was 0.362 µM. It also gave a TGI [2] of over 100 µM, a GI50 [3] of 0.36 µM and a TGI [3] of over 100 µM. It also gave a GI50 [4] of 3.98 µM, a TGI [4] of over 100 µM and a GI50 [5] of 0.606 µM. The TGI [5] was over 100 µM, the GI50 [6] was 0.304 µM and the TGI [6] was over 100 µM. The GI50 [7] was 0.962 µM, the TGI [7] was over 23.1 µM and the GI50 [8] was 0.839 µM. It also gave a TGI [8] of over 100 µM, a GI50 [9] of 0.322 µM and a TGI [9] of 3.14 µM. The GI50 [10] was 0.541 µM and the TGI [10] was over 100 µM.

With `CCOC(=O)c1cc(C(=O)c2cc(OC)c(OC)c(OC)c2)n2ncccc12` the GI50 [1] was 1.34 µM, the TGI [1] was over 100 µM and the GI50 [2] was 0.297 µM. For the same molecule, the TGI [2] was over 100 µM, the GI50 [3] was 0.276 µM and the TGI [3] was over 100 µM. For the same molecule, the GI50 [4] was 48.5 µM, the TGI [4] was over 100 µM and the GI50 [5] was 3.47 µM. The TGI [5] was over 100 µM, the GI50 [6] was 0.229 µM and the TGI [6] was over 100 µM. For the same molecule, the GI50 [7] was 28.2 µM, the TGI [7] was over 100 µM and the GI50 [8] was 0.805 µM. It also gave a TGI [8] of over 100 µM, a GI50 [9] of 0.247 µM and a TGI [9] of over 100 µM. For the same molecule, the GI50 [10] was 0.821 µM and the TGI [10] was over 100 µM.

Work on `COC(=O)c1n[nH]c(C)c1N=NN(C)CCC#N` yielded a TGI [1] of 25.4 µM, a TGI [2] of 41.5 µM and a TGI [3] of 46.3 µM. For the same molecule, the TGI [4] was 35 µM, the TGI [5] was 93.6 µM and the TGI [6] was over 100 µM. For the same molecule, the TGI [7] was 35.8 µM, the TGI [8] was 30.7 µM and the TGI [9] was 74.5 µM. For the same molecule, the TGI [10] was 33.8 µM.

In the case of `CN(c1ncccc1CNc1nc(Nc2ccc3c(c2)CC(=O)N3)ncc1C(F)(F)F)S(C)(=O)=O`, the GI50 [1] is reported as 2.72 µM and 3.31 µM, the TGI [1] is reported as over 100 µM and the GI50 [2] is reported as 3 µM and 2.46 µM. For the same molecule, the GI50 [3] was 1.52 µM and 2.5 µM, the TGI [3] was 12.6 µM and > 10 µM and the GI50 [4] was 0.0987 µM and 0.192 µM. The TGI [4] was 1.85 µM and 5.99 µM, the GI50 [5] was 2.42 µM and 1.8 µM and the TGI [5] was over 100 µM. The GI50 [6] was 1.87 µM and 2.91 µM, the TGI [6] was 5.49 µM and > 10 µM and the GI50 [7] was 2.38 µM and 2.25 µM. The TGI [7] was 7.97 µM and > 10 µM, the GI50 [8] was 2.1 µM and 3.56 µM and the TGI [8] was 11 µM and > 10 µM. The GI50 [9] was 2.57 µM and 2.28 µM, the TGI [9] was 7.44 µM and 5.85 µM and the GI50 [10] was 2.88 µM and 2.95 µM. For the same molecule, the TGI [10] was over 100 µM.

For `CC(N)C(Cc1ccc(Cl)cc1)c1ccc(Cl)cc1` (centres undefined), the GI50 [1] was 4.85 µM, the TGI [1] was 18.5 µM and the GI50 [2] was 20.3 µM. For the same molecule, the TGI [2] was 39 µM, the GI50 [3] was 4.05 µM and the TGI [3] was 16.4 µM. It also gave a GI50 [4] of 5.59 µM, a TGI [4] of 19.9 µM and a GI50 [5] of 4.89 µM. It also gave a TGI [5] of 18.7 µM, a GI50 [6] of 5.53 µM and a TGI [6] of 18.9 µM. It also gave a GI50 [7] of 17.5 µM, a TGI [7] of 39.3 µM and a GI50 [8] of 11.4 µM. It also gave a TGI [8] of 25.7 µM, a GI50 [9] of 12.4 µM and a TGI [9] of 25.1 µM. The GI50 [10] was 11.4 µM and the TGI [10] was 26.7 µM.

Work on `O=C(NCCCCCCCCCCCCNC(=O)c1cccc2ccccc12)c1cccc2ccccc12` yielded a TGI [1] of over 100 µM, a TGI [2] of over 100 µM and a TGI [3] of over 100 µM. For the same molecule, the TGI [4] was over 72.1 µM, the TGI [5] was over 100 µM and the TGI [6] was over 100 µM. The TGI [7] was over 82.2 µM, the TGI [8] was 20.5 µM and the TGI [9] was over 100 µM. It also gave a TGI [10] of over 100 µM.

With `CN(CCN1C(=O)c2cc([N+](=O)[O-])cc3cc([N+](=O)[O-])cc(c23)C1=O)CCN1C(=O)c2cc([N+](=O)[O-])cc3cc([N+](=O)[O-])cc(c23)C1=O` the TGI [1] was over 100 µM, the TGI [2] was 4.03 µM and the TGI [3] was 9.18 µM. It also gave a TGI [4] of 2.2 µM, a TGI [5] of 5.51 µM and a TGI [6] of 9.23 µM. For the same molecule, the TGI [7] was 9.69 µM, the TGI [8] was over 100 µM and the TGI [9] was 8.49 µM. The TGI [10] was over 100 µM.

With `CS(=O)(=O)Nc1cncc(-c2ccc3ncnc(Nc4ccc(F)c(Cl)c4)c3c2)c1` the GI50 [1] was 1.69 µM, the TGI [1] was over 100 µM and the GI50 [2] was 1.38 µM. For the same molecule, the TGI [2] was 13 µM, the GI50 [3] was 1.97 µM and the TGI [3] was 5.77 µM. It also gave a GI50 [4] of 0.369 µM, a TGI [4] of 4.82 µM and a GI50 [5] of 0.34 µM. The TGI [5] was 1.91 µM, the GI50 [6] was 3.33 µM and the TGI [6] was 15.1 µM. For the same molecule, the GI50 [7] was 2.57 µM, the TGI [7] was 21.3 µM and the GI50 [8] was 4.96 µM. It also gave a TGI [8] of 96.6 µM, a GI50 [9] of 1.83 µM and a TGI [9] of 4.48 µM. For the same molecule, the GI50 [10] was 2.6 µM and the TGI [10] was 15.2 µM.

For `CC1=Nc2ccccc2S/C1=C(/C)NNS(=O)(=O)c1ccc(C)cc1`, the TGI [1] was over 100 µM, the TGI [2] was 86.7 µM and the TGI [3] was over 100 µM. For the same molecule, the TGI [4] was over 100 µM, the TGI [5] was over 100 µM and the TGI [6] was over 100 µM. The TGI [7] was over 100 µM, the TGI [8] was over 100 µM and the TGI [9] was over 100 µM. The TGI [10] was over 100 µM.

Molecule `COc1ccc2c(c1)/C(=C\c1c(-c3cc(OC)ccc3OC)nc3sc(C)cn13)C(=O)N2C` has a GI50 [1] of 28.2 µM, a TGI [1] of over 100 µM and a GI50 [2] of 12.1 µM. For the same molecule, the TGI [2] was over 100 µM, the GI50 [3] was 22.3 µM and the TGI [3] was over 100 µM. The GI50 [4] was 4.33 µM, the TGI [4] was 37.6 µM and the GI50 [5] was 19.4 µM. It also gave a TGI [5] of over 100 µM, a GI50 [6] of 26.1 µM and a TGI [6] of 71.4 µM. The GI50 [7] was 30.9 µM, the TGI [7] was over 100 µM and the GI50 [8] was 20.9 µM. The TGI [8] was over 100 µM, the GI50 [9] was 20.9 µM and the TGI [9] was 65.4 µM. The GI50 [10] was 24.7 µM and the TGI [10] was over 100 µM.

Molecule `O=c1[nH]c2ccccc2c2ccccc12` has a GI50 [1] of over 100 µM, a TGI [1] of over 100 µM and a GI50 [2] of over 100 µM. The TGI [2] was over 100 µM, the GI50 [3] was over 100 µM and the TGI [3] was over 100 µM. It also gave a GI50 [4] of 39.8 µM, a TGI [4] of over 100 µM and a GI50 [5] of over 100 µM. For the same molecule, the TGI [5] was over 100 µM, the GI50 [6] was over 100 µM and the TGI [6] was over 100 µM. For the same molecule, the GI50 [7] was over 100 µM, the TGI [7] was over 100 µM and the GI50 [8] was 60.7 µM. The TGI [8] was over 100 µM, the GI50 [9] was 91.5 µM and the TGI [9] was over 100 µM. For the same molecule, the GI50 [10] was over 100 µM and the TGI [10] was over 100 µM.
